These results are taken from patent US9969687B2, “Compounds useful as CCR9 modulators” (Norgine B.V., priority 2013, dated 2018).

Sequence of CCR9 (P51686 whole entry): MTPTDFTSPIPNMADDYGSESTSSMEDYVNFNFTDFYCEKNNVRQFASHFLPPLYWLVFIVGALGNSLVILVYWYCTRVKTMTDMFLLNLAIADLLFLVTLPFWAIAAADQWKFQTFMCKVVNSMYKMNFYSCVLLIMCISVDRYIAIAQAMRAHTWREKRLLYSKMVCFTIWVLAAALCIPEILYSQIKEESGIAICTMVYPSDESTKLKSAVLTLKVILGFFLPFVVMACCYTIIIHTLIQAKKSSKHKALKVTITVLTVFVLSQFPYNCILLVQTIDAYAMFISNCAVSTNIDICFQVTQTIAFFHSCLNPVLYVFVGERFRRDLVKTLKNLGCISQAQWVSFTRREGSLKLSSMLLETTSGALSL

For this test, the target named is CCR9 (Homo sapiens (Human), UniProt P51686). The experiment in a line: FLIPR calcium flux assay using MOLT4 cells, TECK stimulation. Format: cell-based. To be noted: MOLT4 cells (human T-cell line). As to the method:
Biological Activity: FLIPR Assay Using MOLT4 Cells
A calcium flux assay was used to determine the ability of the compounds to interfere with the binding between CCR9 and its chemokine ligand (TECK) in MOLT4 cells (a human T-cell line). MOLT4 cells were seeded (100,000 cells/well) in corning cell culture plates (Cat #3603) in assay buffer (1×HBSS, 20 mM HEPES) containing 2.5 mM Probenecid. The plate was centrifuged at 1200 rpm for 3 minutes and incubated at 37° C./5% CO2 for 2 hours. A 0.3× Fluo-4 NW calcium dye was prepared in assay buffer containing 5 mM Probenecid and stored in the dark. Each well was loaded with 25 μl of 0.3× Fluo-4 NW calcium dye and incubated at 37° C./5% CO2 for 60 minutes and then at room temperature for 30 minutes. A half-log serially diluted concentration response curve was prepared at a 4× concentration for each (10 μM-0.1 nM final assay concentration) and 25 μL of the compound then transferred to the cells (100 μL final volume) for 60 minutes prior to stimulation (30 minutes at 37° C./5% CO2 and 30 minutes at room temperature). […] The increased in intracellular calcium levels was measured with the FLIPR instrument. The potency of the compound as CCR9 antagonist was calculated as an IC50 using GraphPad Prism software (variable slope four parameter). The Ki of the compound was determined from the IC50 values using the following equation. IC50/1+(Agonist (TECK) conc. used in assay/EC50 of agonist (TECK) generated on day of experiment) Ki calculation: […]
In general terms: Calcium flux is commonly read through the fluorescence of an indicator in the cells.
`Cc1cc(C)nc(N2C(=O)c3c(Cl)ccc(NS(=O)(=O)c4ccc(C(C)(C)C)cc4)c3C2=O)n1` [Compound 240]: the Ki (in general, a measure of affinity in units of concentration, obtained from inhibition or displacement) was 84 nM.
On to `CC(C)c1ccc(S(=O)(=O)Nc2ccc(Cl)c3c2C(=O)N(c2cccc(C#N)c2)C3=O)cc1` [Compound 125], for which the Ki turned out to be 243 nM.
For `COc1cc(N2C(=O)c3c(Cl)ccc(NS(=O)(=O)c4ccc(C(C)(C)C)cc4)c3C2=O)c[n+]([O-])c1` [Compound 91, 3-(4-(4-(tert-butyl)phenylsulfonamido)-7-chloro-1,3-dioxoisoindolin-2-yl)-5-methoxypyridine 1-oxide], the Ki was 50 nM.
As to `N#Cc1cccc(N2C(=O)c3c(Cl)ccc(NS(=O)(=O)c4ccc(OC(F)F)cc4)c3C2=O)c1` [Compound 124], the Ki stood at 224 nM.
On to `O=C1c2cccc(NS(=O)(=O)c3ccc(Cl)c(C(F)(F)F)c3)c2C(=O)N1c1cccnc1` [Compound 7], for which the Ki was 206 nM.
Take `O=C1c2cccc(NS(=O)(=O)c3ccc(OC(F)(F)F)cc3)c2C(=O)N1c1cccnc1` [Compound 5]: the Ki came to 123 nM.
The figure for `COc1nc(C)ccc1CN1C(=O)c2c(Cl)ccc(NS(=O)(=O)c3ccc(C(C)(C)C)cc3)c2C1=O` [Compound 253] is 41 nM; for `CC(C)c1ccc(S(=O)(=O)Nc2ccc(Cl)c3c2C(=O)N(c2cccnc2)C3=O)cc1` [Compound 57] it is 38 nM; for `Cn1cc(N2C(=O)c3c(Cl)ccc(NS(=O)(=O)c4ccc(C(C)(C)C)cc4)c3C2=O)cn1` [Compound 142] it is 41 nM.
As for `O=C1c2c(Cl)ccc(NS(=O)(=O)c3ccc(C(F)(F)F)cc3)c2C(=O)N1c1cncnc1` [Compound 140], the Ki is 216 nM.
For the molecule `Cc1ccc(NS(=O)(=O)c2ccc(C(F)(F)F)cc2)c2c1C(=O)N(Cc1cccnc1)C2=O` [Compound 161], the Ki stood at 568 nM.
For `CC(C)(C)c1ccc(S(=O)(=O)Nc2ccc(Cl)c3c2C(=O)N(c2cncc(C#N)c2)C3=O)cc1` [Compound 177], the Ki came to 73 nM.
As to `COc1ccc(N2C(=O)c3c(Cl)ccc(NS(=O)(=O)c4ccc(C(C)(C)C)cc4)c3C2=O)[n+]([O-])c1C` [Compound 265], the Ki came out at 41 nM.
`O=C1c2c(Cl)ccc(NS(=O)(=O)c3ccc(OC(F)F)cc3)c2C(=O)N1c1cccnc1` [Compound 52]: the Ki amounted to 187 nM.
On to `CC(C)(C)c1ccc(S(=O)(=O)Nc2ccc(Cl)c3c2C(=O)N(c2nccs2)C3=O)cc1` [Compound 146], for which the Ki came out at 154 nM.
Then `N#Cc1cccc(N2C(=O)c3c(Cl)ccc(NS(=O)(=O)c4ccc(OC(F)(F)F)cc4)c3C2=O)c1` [Compound 122], with 175 nM.
In the case of `O=C1c2c(Cl)ccc(NS(=O)(=O)c3ccc(OC(F)F)cc3)c2C(=O)N1c1cn[nH]c1` [Compound 152], the Ki worked out at 245 nM.
The figure for `Cc1ccc(N2C(=O)c3c(Cl)ccc(NS(=O)(=O)c4ccc(C(C)(C)C)cc4)c3C2=O)c[n+]1[O-]` [Compound 205] is 46 nM; for `CC(C)(C)c1cccc(S(=O)(=O)Nc2cccc3c2C(=O)N(Cc2cccnc2)C3=O)c1` [Compound 14] it is 1550 nM.
Regarding `CC(C)c1ccc(S(=O)(=O)Nc2ccc(Cl)c3c2C(=O)N(Cc2cccnc2)C3=O)cc1` [Compound 80], the Ki is 173 nM.
On to `Cc1ccc(CN2C(=O)c3c(Cl)ccc(NS(=O)(=O)c4ccc(C(C)(C)C)cc4)c3C2=O)c(C)n1` [Compound 248], for which the Ki stood at 70 nM.
Take `COc1cncc(N2C(=O)c3c(Cl)ccc(NS(=O)(=O)c4ccc(Cl)c(C(F)(F)F)c4)c3C2=O)c1` [Compound 93]: the Ki came out at 217 nM.
On to `CC(C)(C)c1ccc(S(=O)(=O)Nc2ccc(Cl)c3c2C(=O)N(CCc2cccnc2)C3=O)cc1` [Compound 116, 4-(tert-butyl)-N-(7-chloro-1,3-dioxo-2-(2-(pyridin-3-yl)ethyl)isoindolin-4-yl)benzenesulfonamide], for which the Ki was 100 nM.
Turning to `Cn1cc(N2C(=O)c3c(Cl)ccc(NS(=O)(=O)c4ccc(C(C)(C)C)cc4)c3C2=O)c(C(=O)O)n1` [Compound 289], the Ki worked out at 104 nM.
Then `Cc1ccc(NS(=O)(=O)c2ccc(OC(F)(F)F)cc2)c2c1C(=O)N(Cc1cccnc1)C2=O` [Compound 162], with 1000 nM; and `O=C1c2c(Cl)ccc(NS(=O)(=O)c3ccc(Cl)c(C(F)(F)F)c3)c2C(=O)N1c1cccnc1` [Compound 48], with 171 nM; and `CC(C)(C)c1ccc(S(=O)(=O)Nc2ccc(C#N)c3c2C(=O)N(Cc2ccc[n+]([O-])c2)C3=O)cc1` [Compound 280], with 37 nM.
As to `CC(C)(C#N)c1ccc(S(=O)(=O)Nc2ccc(Cl)c3c2C(=O)N(Cc2cccnc2)C3=O)cc1` [Compound 79], the inhibitory constant (Ki) came out at 33 nM.
Then `Cc1ccc(NS(=O)(=O)c2ccc(C(C)(C)C)cc2)c2c1C(=O)N(c1cccnc1)C2=O` [Compound 157, 4-(tert-butyl)-N-(7-methyl-1,3-dioxo-2-(pyridin-3-yl)isoindolin-4-yl)benzenesulfonamide], with 189 nM.
Turning to `COc1ccc(N2C(=O)c3c(Cl)ccc(NS(=O)(=O)c4ccc(C(C)(C)C)cc4)c3C2=O)cn1` [Compound 118, 4-(tert-butyl)-N-(7-chloro-2-(6-methoxypyridin-3-yl)-1,3-dioxoisoindolin-4-yl)benzenesulfonamide], the Ki turned out to be 78 nM.
Then `N#Cc1cccc(N2C(=O)c3cccc(NS(=O)(=O)c4ccc(C(F)(F)F)cc4)c3C2=O)c1` [Compound 39], with 611 nM; and `CC(C)c1ccc(S(=O)(=O)Nc2ccc(Cl)c3c2C(=O)N(c2cn[nH]c2)C3=O)cc1` [Compound 151], with 42 nM; and `COc1ccc(N2C(=O)c3c(Cl)ccc(NS(=O)(=O)c4ccc(C(C)(C)C)cc4)c3C2=O)c[n+]1[O-]` [Compound 180], with 78 nM.
`CC(C)(C#N)c1ccc(S(=O)(=O)Nc2ccc(Cl)c3c2C(=O)N(Cc2ccc[n+]([O-])c2)C3=O)cc1` [Compound 81]: the Ki was determined as 148 nM.
The figure for `Cc1ccc(CN2C(=O)c3c(Cl)ccc(NS(=O)(=O)c4ccc(C(C)(C)C)cc4)c3C2=O)c(C)[n+]1[O-]` [Compound 252] is 33 nM; for `O=C1c2cccc(NS(=O)(=O)c3cccc(C(F)(F)F)c3)c2C(=O)N1c1cccnc1` [Compound 4] it is 2710 nM.
Regarding `O=C1c2cccc(NS(=O)(=O)c3ccc(C(F)(F)F)cc3)c2C(=O)N1Cc1cccnc1` [Compound 19], the Ki is 758 nM.
As to `Cn1cc(N2C(=O)c3c(Cl)ccc(NS(=O)(=O)c4ccc(C(F)(F)F)cc4)c3C2=O)cn1` [Compound 143], the Ki was determined as 64 nM.
On to `CC(C)(C)c1ccc(S(=O)(=O)Nc2ccc(C#N)c3c2C(=O)N(Cc2cccc(C#N)c2)C3=O)cc1` [Compound 127, 4-(tert-butyl)-N-(7-cyano-2-(3-cyanobenzyl)-1,3-dioxoisoindolin-4-yl)benzenesulfonamide], for which the Ki came to 153 nM.
Consider `CC(C)(C)c1ccc(S(=O)(=O)Nc2ccc(C#N)c3c2C(=O)N(C2CCOCC2)C3=O)cc1` [Compound 277], for which the Ki came to 28 nM.
In the case of `Cc1ccc(CN2C(=O)c3c(Cl)ccc(NS(=O)(=O)c4ccc(C(C)(C)C)cc4)c3C2=O)cn1` [Compound 215], the Ki was 85 nM.
Take `Cc1cncc(N2C(=O)c3c(Cl)ccc(NS(=O)(=O)c4ccc(C(C)C)cc4)c3C2=O)c1` [Compound 105]: the Ki amounted to 311 nM.
With `O=C1c2cccc(NS(=O)(=O)c3ccc(F)c(C(F)(F)F)c3)c2C(=O)N1c1cccnc1` [Compound 8], the Ki stood at 1320 nM.
In the case of `CCOc1nc(C)ccc1CN1C(=O)c2c(Cl)ccc(NS(=O)(=O)c3ccc(C(C)(C)C)cc3)c2C1=O` [Compound 246], the inhibition constant (Ki) is 125 nM.
Consider `CC(C)(C)c1ccc(S(=O)(=O)Nc2ccc(Cl)c3c2C(=O)N(C(C)(C)c2cccnc2)C3=O)cc1` [Compound 107, 4-(tert-butyl)-N-(7-chloro-1,3-dioxo-2-(2-(pyridin-3-yl)propan-2-yl)isoindolin-4-yl)benzenesulfonamide], for which the Ki amounted to 318 nM.
As for `Cn1cnc(N2C(=O)c3c(Cl)ccc(NS(=O)(=O)c4ccc(C(F)(F)F)cc4)c3C2=O)c1` [Compound 154], the Ki was 32 nM.
Regarding `CC(C)(C)c1ccc(S(=O)(=O)Nc2ccc(Cl)c3c2C(=O)N(CCc2ccc[n+]([O-])c2)C3=O)cc1` [Compound 117, 3-(2-(4-(4-(tert-butyl)phenylsulfonamido)-7-chloro-1,3-dioxoisoindolin-2-yl)ethyl)pyridine 1-oxide], the Ki stood at 184 nM.
Consider `CC(C)(C)c1ccc(S(=O)(=O)Nc2ccc(Cl)c3c2C(=O)N(c2cncs2)C3=O)cc1` [Compound 178], for which the Ki came out at 164 nM.
In the case of `N#Cc1cccc(N2C(=O)c3cccc(NS(=O)(=O)c4ccc(OC(F)(F)F)cc4)c3C2=O)c1` [Compound 40], the Ki came out at 1360 nM.
The figure for `COc1cncc(N2C(=O)c3c(Cl)ccc(NS(=O)(=O)c4ccc(C(F)(F)F)cc4)c3C2=O)c1` [Compound 92] is 255 nM; for `CCOc1cccc(N2C(=O)c3c(Cl)ccc(NS(=O)(=O)c4ccc(C(C)(C)C)cc4)c3C2=O)[n+]1[O-]` [Compound 210] it is 44 nM; for `CC(C)(C)c1ccc(S(=O)(=O)Nc2ccc(Cl)c3c2C(=O)N(c2ccc(F)nc2)C3=O)cc1` [Compound 187] it is 33 nM.
